Assay results taken from patent publication US20250019385A1, “SPIROCYCLIC ANNULATED 2-AMINO-3-CYANO THIOPHENES AND DERIVATIVES FOR THE TREATMENT OF CANCER” (Boehringer Ingelheim International GmbH, priority 2023, published 2025).

Key:
[1] = target: KRAS (WT)::CRAF protein::protein interaction (Homo sapiens (Human), UniProt P01116); assay: KRAS TR-FRET assay (KRAS WT::CRAF, GTP); format: binding
Description: (§1) This assay measures the inhibitory effect of compounds on KRAS::CRAF protein::protein interactions in the presence of GTP using Time-resolved fluorescence energy transfer (TR-FRET).
(§2) The following wildtype or mutant alleles of KRAS and CRAF protein have been used at the given concentrations:
KRAS (WT) 1-169, N-terminal 6His-tag, C-terminal avi-tag (Boehringer Ingelheim in house protein prep); final assay concentration 15 nM.
(§3) CRAF Ras binding domain, GST-tag, TEV cleavage site (Boehringer Ingelheim in house protein prep); final assay concentration 15 nM.
(§4) Test compounds dissolved in DMSO were dispensed onto assay plates (Proxiplate 384 PLUS, white, PerkinElmer; 6008289) using an Access Labcyte Workstation with the Labcyte Echo 55x. For the chosen highest assay concentration of 100 μM, 150 nl of compound solution was transferred from a 10 mM DMSO compound stock solution. A series of eleven fivefold dilutions per compound was transferred to the assay plate, compound dilutions were tested in duplicates. DMSO was added as backfill to a total volume of 150 nl.
(§5) The assay runs on a fully automated robotic system. To 150 nl of compound dilution 15 μl of a mix including the respective KRAS allele, CRAF (e.g. KRAS (G12D)::CRAF; final assay concentrations see above), GTP nucleotide (Sigma G8877; final assay concentration 10 μM), Lance Eu—W1024 labeled Streptavidin (PerkinElmer, Cat No AD0063; final assay concentration 1.5 nM) and Anti-GST surelight APC (PerkinElmer, Cat No AD0059G; final assay concentration 30 nM) in assay buffer (1×PBS, 0.1% BSA, 0.05% Tween 20) are added into columns 1-23 and 15 μL of the solution without the respective KRAS allele were added to row 24.
(§6) Plates are kept at room temperature in a darkened incubator. After 60 minutes incubation time the signal is measured in a PerkinElmer Envision HTS Multilabel Reader using the TR-FRET LANCE Ultra specs from PerkinElmer.
(§7) Each plate contains 16 wells of a negative control (diluted DMSO instead of test compound; w respective KRAS allele; column 23) and 16 wells of a positive control (diluted DMSO instead of test compound; w/o respective KRAS allele; column 24).
(§8) IC50 values were calculated and analyzed with Boehringer Ingelheim's MEGALAB 50 application using a 4 parametric logistic model.
(§9) Tables of example compounds disclosed herein contain IC50 values determined using the above assays (see Table 44).

[2] = Caco-2 assay (permeability and efflux ratio); format: in vitro ADME; conditions: human; for Papp A→B at 90 min, 10 μM: Caco-2 apical to basolateral permeability, pH 7.4, read-out: Caco PappAB; for efflux ratio at 90 min, 10 μM: pH 7.4, Caco-2 efflux ratio PappBA/PappAB, read-out: Caco ER
Description: The assay provides information on the potential of a compound to pass the cell membrane, on the extent of oral absorption as well as on whether the compound is actively transported by uptake and/or efflux transporters. Permeability measurements across polarized, confluent Caco-2 cell monolayers grown on permeable filter supports (Corning, catalog #3391) are used. 10 μM test compound solution in assay buffer (128.13 mM NaCl, 5.36 mM KCl, 1 mM MgSO4, 1.8 mM CaCl2), 4.17 mM NaHCO3, 1.19 mM Na2HPO4, 0.41 mM NaH2PO4, 15 mM 2-[4-(2-hydroxyethyl)piperazin-1-yl]ethanesulfonic acid (HEPES), 20 mM glucose, pH 7.4) was added to the donor compartment of the cell chamber containing a monolayer of Caco-2 cells in between the donor and the receiver compartment. The receiver and donor compartments contain 0.25% bovine serum albumine (BSA) in assay buffer. Passive diffusion and/or active transport of compounds across the monolayer is measured in both apical to basolateral (a-b) and basolateral to apical (b-a) direction. a-b permeability (PappAB) represents drug absorption from the intestine into the blood and b-a permeability (PappBA) drug secretion from the blood back into the intestine via both passive permeability as well as active transport mechanisms mediated by efflux and uptake transporters that are expressed on the Caco-2 cells. After a pre-incubation of 25-30 min at 37° C., at predefined time points (0, 30, 60 and 90 min), samples were taken from the receiver and donor compartment, respectively. Concentrations of test compounds in samples were measured by HPLC/MS/MS, samples from the donor compartment were diluted 1:50 (v:v) with assay buffer, samples from receiver compartment were measured without dilution.
Apparent permeabilities in a-b (PappAB) and b-a (PappBA) directions are calculated according to the formula:
[formula] • Vrec [mL]: buffer volume in receiver compartment • Cdon [μmol/mL]: concentration of test compound in donor compartment at t=0 • ΔCrec: difference between concentrations of test compound in receiver compartment at start and end of incubation time • Δt: Incubation time • Vrec·ΔCrec/Δt [μmol/min]: Amount of compound transferred to receiver compartment per time • A [cm^2]: filter surface
Caco-2 efflux ratios (ER) are calculated as the ratio of PappBA/PappAB.

[3] = target: KRAS (G12V)::CRAF protein::protein interaction (Homo sapiens (Human), UniProt P01116, C118S/G12V); assay: KRAS TR-FRET assay (KRAS G12V::CRAF, GTP); format: binding
Description: as §1, §2
KRAS (G12V) 1-169, C118S, N-terminal 6His-tag, C-terminal avi-tag (Boehringer Ingelheim in house protein prep); final assay concentration 15 nM.
as §3, §4, §5, §6, §7, §8, §9

[4] = target: KRAS (G12D)::CRAF protein::protein interaction (Homo sapiens (Human), UniProt P01116, G12D); assay: KRAS TR-FRET assay (KRAS G12D::CRAF, GTP); format: binding
Description: as §1, §2
KRAS (G12D) 1-169, N-terminal 6His-tag, C-terminal avi-tag (Xtal BioStructures, Inc.); final assay concentration 15 nM,
as §3, §4, §5, §6, §7, §8, §9

CYP3A4 = CYP3A4 (Homo sapiens (Human), UniProt P08684); assay: Mechanism based inhibition of CYP3A4 assay (MBI 3A4); format: in vitro ADME; conditions: human liver microsomes, 25 uM compound; hydroxy-midazolam formation after 30 min preincubation relative to 0 min
Description: The time dependent inhibition towards CYP3A4 is assayed in human liver microsomes (0.02 mg/mL) with midazolam (15 μM) as a substrate. The test compounds and water control (wells w/o test compound) are preincubated in presence of NADPH (1 mM) with human liver microsomes (0.2 mg/mL) at a concentration of 25 uM for 0 min and 30 min. After preincubation, the incubate is diluted 1:10 and the substrate midazolam is added for the main incubation (15 min). The main incubation is quenched with acetonitrile and the formation of hydroxy-midazolam is quantified via LC/MS-MS. The formation of hydroxy-midazolam from the 30 min preincubation relative to the formation from the 0 min preincubation is used as a readout. Values of less than 100% mean that the substrate midazolam is metabolized to a lower extent upon 30 min preincubation compared to 0 min preincubation. In general low effects upon 30 min preincubation are desired (corresponding to values close to 100%/not different to the values determined with water control).

Chain of KRAS (WT)::CRAF protein::protein interaction (P01116 other isoform, or with tags, fused parts or gaps): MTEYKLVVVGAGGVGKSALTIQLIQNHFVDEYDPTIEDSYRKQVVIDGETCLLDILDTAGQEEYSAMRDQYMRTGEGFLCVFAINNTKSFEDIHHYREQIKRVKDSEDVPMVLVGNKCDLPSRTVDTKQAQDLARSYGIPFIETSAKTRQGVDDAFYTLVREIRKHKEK
Chain of KRAS (G12V)::CRAF protein::protein interaction (P01116 other isoform, or with tags, fused parts or gaps G12V/C118S): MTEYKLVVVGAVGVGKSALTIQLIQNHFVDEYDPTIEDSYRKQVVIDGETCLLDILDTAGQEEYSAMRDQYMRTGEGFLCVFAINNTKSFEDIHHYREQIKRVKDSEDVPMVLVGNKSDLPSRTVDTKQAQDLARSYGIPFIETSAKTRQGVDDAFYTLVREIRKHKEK
Chain of CYP3A4 (P08684 whole entry): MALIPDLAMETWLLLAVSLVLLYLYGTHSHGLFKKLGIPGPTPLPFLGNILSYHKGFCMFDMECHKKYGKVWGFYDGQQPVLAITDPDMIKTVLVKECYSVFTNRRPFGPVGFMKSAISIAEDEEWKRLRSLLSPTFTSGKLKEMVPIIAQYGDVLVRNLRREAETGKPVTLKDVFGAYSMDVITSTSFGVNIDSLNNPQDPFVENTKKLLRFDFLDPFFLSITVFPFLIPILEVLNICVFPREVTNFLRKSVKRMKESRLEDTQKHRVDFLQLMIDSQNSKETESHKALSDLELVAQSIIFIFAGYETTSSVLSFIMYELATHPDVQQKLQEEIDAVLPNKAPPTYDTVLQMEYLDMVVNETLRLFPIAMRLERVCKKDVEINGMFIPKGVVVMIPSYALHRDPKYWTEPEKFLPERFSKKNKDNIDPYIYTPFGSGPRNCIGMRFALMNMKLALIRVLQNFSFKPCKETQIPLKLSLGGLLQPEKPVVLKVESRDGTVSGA
Chain of KRAS (G12D)::CRAF protein::protein interaction (P01116 other isoform, or with tags, fused parts or gaps G12D): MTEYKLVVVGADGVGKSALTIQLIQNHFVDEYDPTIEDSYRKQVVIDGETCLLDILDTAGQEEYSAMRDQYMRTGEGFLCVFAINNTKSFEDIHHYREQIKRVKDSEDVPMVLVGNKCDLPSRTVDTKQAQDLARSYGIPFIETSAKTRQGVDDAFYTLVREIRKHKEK

Row | SMILES | IC50 [1] | Papp A→B at 90 min, 10 μM [2] | efflux ratio at 90 min, 10 μM [2] | IC50 [3] | IC50 [4] | MBI 3A4 (CYP3A4)
1 | COCCn1c(=O)n([C@@H]2CCOC2)c2nc(-c3onc4c3CCC[C@@]43CCCc4sc(N)c(C#N)c43)nc(O[C@@H](C)[C@@H]3CCCN3C)c21 [I-1] | 160 nM | 18 ×10⁻⁶ cm/s | 3.1 | 107 nM | 145 nM | –
2 | CO[C@@H]1C[C@@H]([C@H](C)Oc2nc(-c3onc4c3CCC[C@@]43CCCc4sc(N)c(C#N)c43)nc3c2n(C)c(=O)n3[C@@H]2CCOC2)N(C)C1 [I-3] | 101 nM | 29 ×10⁻⁶ cm/s | 1.9 | 69 nM | 71 nM | –
3 | C[C@H](Oc1nc(-c2onc3c2CCC[C@@]32CCCc3sc(N)c(C#N)c32)nc2c1[nH]c(=O)n2[C@@H]1CCOC1)[C@@H]1CCCN1C [I-8] | 45 nM | 0.8 ×10⁻⁶ cm/s | 46.3 | 20 nM | 47 nM | 61%
4 | C[C@H](Oc1nc(-c2onc3c2CCC[C@@]32CCCc3sc(N)c(C#N)c32)nc2c1n(C)c(=O)n2[C@H]1CCOC1)[C@@H]1CCCN1C [I-9] | 611 nM | 20 ×10⁻⁶ cm/s | 2.7 | 199 nM | 418 nM | 83%
5 | C[C@H](Oc1nc(-c2onc3c2CCC[C@@]32CCCc3sc(N)c(C#N)c32)nc2c1n(C)c(=O)n2[C@@H]1CCCOC1)[C@@H]1CCCN1C [I-12] | 37 nM | 25.5 ×10⁻⁶ cm/s | 1.7 | 22 nM | 62 nM | 75%
6 | C[C@H](Oc1nc(-c2onc3c2CCC[C@@]32CCCc3sc(N)c(C#N)c32)nc2c1n(C)c(=O)n2[C@@H]1CCOC1)[C@@H]1CCCN1C [I-20] | 50 nM | 11.9 ×10⁻⁶ cm/s | 6.2 | 21 nM | 46 nM | 92%
7 | CCn1c(=O)n([C@@H]2CCOC2)c2nc(-c3onc4c3CCC[C@@]43CCCc4sc(N)c(C#N)c43)nc(O[C@@H](C)[C@@H]3CCCN3C)c21 [I-21] | 95 nM | 19 ×10⁻⁶ cm/s | 3.8 | 37 nM | 85 nM | –
8 | C[C@H](Oc1nc(-c2onc3c2CCC[C@@]32CCCc3sc(N)c(C#N)c32)nc2c1n(C)c(=O)n2[C@@H]1CCOC1)C12CCCN1CCC2 [I-25] | 53 nM | 2.9 ×10⁻⁶ cm/s | 18.6 | 26 nM | 53 nM | 60%
9 | C[C@H](Oc1nc(-c2onc3c2CCC[C@@]32CCCc3sc(N)c(C#N)c32)nc2c1n(C)c(=O)n2[C@@H]1CCOC1)[C@@H]1CC[C@H](C)N1C [I-26] | 50 nM | 43 ×10⁻⁶ cm/s | 1 | 22 nM | 58 nM | 83%
10 | C[C@H](Oc1nc(-c2onc3c2CCC[C@@]32CCCc3sc(N)c(C#N)c32)nc2c1n(C)c(=O)n2[C@@]12COC[C@@H]1C2)[C@@H]1CCCN1C [I-29] | 37 nM | 19 ×10⁻⁶ cm/s | 2.5 | 18 nM | 85 nM | 79%
11 | CCn1c(=O)n([C@@H]2CCCOC2)c2nc(-c3onc4c3CCC[C@@]43CCCc4sc(N)c(C#N)c43)nc(O[C@@H](C)[C@@H]3CCCN3C)c21 [I-30] | 153 nM | – | 0.7 | 102 nM | 163 nM | –
12 | C[C@H](Oc1nc(-c2onc3c2CCC[C@@]32CCCc3sc(N)c(C#N)c32)nc2c1COC[C@]21CCOC1)[C@@H]1CCCN1C [I-54] | 33 nM | – | – | 12 nM | 25 nM | 83%
13 | C[C@H](Oc1nc(-c2noc3c2CCC[C@@]32CCCc3sc(N)c(C#N)c32)nc2c1COC[C@]21CCOC1)[C@@H]1CCCN1C [II-8] | 24 nM | 23 ×10⁻⁶ cm/s | 1.6 | 11 nM | 17 nM | 85%
14 | C[C@H](Oc1nc(-c2noc3c2CCC[C@@]32CCCc3sc(N)c(C#N)c32)nc2c1CCO[C@]21CCOC1)[C@@H]1CCCN1C [II-9b] | 80 nM | 25 ×10⁻⁶ cm/s | 1.8 | 35 nM | 117 nM | 101%
15 | C[C@H](Oc1nc(-c2noc3c2CCC[C@@]32CCCc3sc(N)c(C#N)c32)nc2c1CNC[C@]21CCOC1)[C@@H]1CCCN1C [II-15] | 40 nM | – | – | 17 nM | 18 nM | –
